{"source": "patent US20250295790A1", "about": "“LECTIN-TARGETING CONJUGATES” (Helmholtz-Zentrum für Infektionsforschung GmbH, priority 2021, published 2025)", "key": {"[1]": {"experiment": "Plasma protein binding assay (RED), murine plasma", "type": "in vitro ADME", "conditions": "mouse blood plasma", "method": "Plasma protein binding was assessed using the rapid equilibrium device (RED) system from ThermoFisher. […] Dialysis buffer and plasma samples were added to the respective chambers according the manufacturer's protocol. The RED plate was sealed with a tape and incubated at 37° C. for 2 hours at 800 rpm on an Eppendorf MixMate® vortex-mixer. Then samples were withdrawn from the respective chambers. To 25 μl of each dialysis sample, 25 μl of plasma and to 25 μl of plasma sample, 25 l of dialysis buffer was added. […] Samples were incubated for 30 min on ice. Then samples were centrifuged at 4° C. at 2270 ref for 10 min. Supernatants were transferred to Greiner V-bottom 96-well plates and sealed with a tape. Then samples were subjected to HPLC-MS/MS analysis as described in the section ‘HPLC-MS/MS analysis’. The percentage of bound compound was calculated as follows: […]\nCell samples as well as plasma stability, plasma protein binding and metabolic stability samples were analysed using an Agilent 1290 Infinity II coupled to an AB Sciex 6500plus mass spec-trometer. LC conditions were as follows: column: Agilent Zorbax Eclipse Plus C18, 50×2.1 mm, 1.8 m; temperature: 30° C.; injection volume: 5 l per sample; flow rate: 700 l/min. Solvents: A: water+0.1% formic acid; solvent B: 95% acetonitrile/5% H2O+0.1% formic acid. […]"}, "[2]": {"experiment": "Stability of conjugates in human blood plasma spiked with LB", "type": "in vitro ADME", "conditions": "50% human blood plasma spiked with 10% LB, within three hours", "method": "A 1 mM solution of the studied compound was prepared in PBS (150 mM NaCl, 2.6 mM KCl, 1.4 mM KH2PO4, 10 mM Na2HPO4, pH 7.4) with 20% DMSO. 50 μL of this solution was diluted in 950 μL matrix or human plasma (spiked with 10% LB) on ice. After brief vortex, 100 μL were immediately treated with 100 μL ice-cold MeCN (spiked with […] diphenhydramine as internal standard). The rest of the solution was incubated at 37° C. and 500 rpm in an eppendorf thermomixer. At various time points (30, 60, 120, 180 min), 100 L sample were taken and treated as described above. […] The AUC of the parent drug and its cleavage products and the internal standard was quantified using Compass QuantAnalysis quantification software. The relative AUC was calculated by AUC (compound)/AUC(ISTD). Procaine was used as a positive control as it readily degrades in human plasma."}, "A549 cells": {"test_system": "A549 cells", "experiment": "Cell accumulation assay", "type": "cell-based, human", "conditions": "for intracellular drug levels: 15 min after incubation", "method": "A549 cells were seed into 96-well-plates as described for the cytotoxicity assay. Cells were cultivated at 37° C. and 5% CO2 until they reached 95% confluency. Cells were treated with 2, 36 or 37 at a final concentration of 10 µg/ml or left untreated. Each condition was assayed in technical dupli-cates with two biological replicates. Cells were treated for 15 min, 30 min and 60 min. After incubation for the respective time point, cells were washed twice with pre-warmed PBS and were then lysed in MeOH and scratched from the surface. Supernatants from medium, wash fluids as well as the cell extracts were subjected to mass spectrometric analysis. For wash fluid and medium samples, calibration and QC samples were prepared using PBS as matrix and spiking the respective compounds into the matrix. For cell extract samples, calibration and QC samples were prepared using MeOH as matrix. For calibration and QC samples compounds were dispensed using a Mantis(R) Formulatrix. […] Supernatants were transferred to a Greiner V-bottom plate, sealed and subjected for HPLC-MS/MS analysis.\n(§1) Cell samples as well as plasma stability, plasma protein binding and metabolic stability samples were analysed using an Agilent 1290 Infinity II coupled to an AB Sciex 6500plus mass spec-trometer. LC conditions were as follows: column: Agilent Zorbax Eclipse Plus C18, 50×2.1 mm, 1.8 m; temperature: 30° C.; injection volume: 5 l per sample; flow rate: 700 l/min. Solvents: A: water+0.1% formic acid; solvent B: 95% acetonitrile/5% H2O+0.1% formic acid. Gradient for 2, 36 and 37: 99% A from 0 min until 1 min; 99-0% A from 1.0 until 2.2 min, 0% A until 3.2 min. Gradient for naproxene: 99% A from 0 min until 1 min; 99-0% A from 1.0 until 5.5 min, 0% A until 6.0 min. Gradient for […] and […]: 99% A from 0 min until 1.0 min, 99-0% A from 1.0 until 3.5 min, 0% A until 3.7 min. Mass transitions for controls and compounds are depicted in table 5."}, "[3]": {"experiment": "Microsomal stability assay, mouse S9 liver microsomes", "type": "in vitro ADME", "conditions": "for CLmic S9mouse: microsomal clearance, calculated from t1/2; for metabolic stability t1/2 MLM: mouse S9 liver fractions", "method": "S9 liver microsomes (mouse and human, Thermo Fisher) were thawed slowly on ice. 20 mg/ml of microsomes, 2 μl of a 100 μM solution of every compound and 183 μl of 100 mM phosphate buffer were incubated 5 min at 37° C. in a water bath. Reactions were initiated using 10 μl of 20 mM NADPH (Roth). Samples were incubated in three replicates at 37° C. under gentle agitation at 150 rpm.\nAt 0, 5, 15, 30, and 60 min, reactions were terminated by the addition of 180 μl acetonitrile using a Mantis Formulatrix® dispenser. Samples were vortexed for 5 min using an Eppendorf MixMate® vortex mixer and centrifuged at 2270 ref for 20 min at 4° C. The supernatants were transferred to 96-well Greiner V-bottom plates, sealed and analysed according to the section HPLC-MS/MS analysis. Peak areas of the respective time point of the compounds were normalized to the peak area at time point 0 min. Then half-life was calculated using linear regression (Microsoft Excel®). Clint [μl/min/mg protein] was calculated using the following formula: […]\nas §1"}}, "note": "Values joined by “and” are separate entries in the source; they are usually repeats but may differ in a detail not shown here. Equal entries are not always repeated."}
{"smiles": "CC(C)CC(NC(=O)CNC(=O)C(C)NC(=O)c1ccc(S(=O)(=O)NCC2OC(C)C(O)C(O)C2O)cc1)C(=O)NC(C)C(=O)NC1CCN(c2cc3c(cc2F)c(=O)c(C(=O)O)cn3C2CC2)C1", "note": "(stereo not shown) [Compound 37]", "values": [{"measurement": "plasma protein binding mouse", "setting": "[1]", "result": "30% and 30.1 ± 9.2%"}, {"measurement": "release of antibiotic cargo", "setting": "[2]", "result": "no significant release of their antibiotic cargo"}, {"measurement": "intracellular cleavage to compound 2", "setting": "A549 cells", "result": "not the case"}, {"measurement": "intracellular drug levels", "setting": "A549 cells", "result": "very low intracellular drug levels"}, {"measurement": "CLmic S9mouse", "setting": "[3]", "result": 6.4, "unit": "μL/min/mg protein"}, {"measurement": "metabolic stability t1/2 MLM", "setting": "[3]", "result": 3.6, "unit": "h"}]}
{"smiles": "CC(C)C[C@H](NC(=O)CNC(=O)[C@H](C)NC(=O)c1ccc(S[C@@H]2O[C@H](CO)[C@H](O)[C@H](O)[C@H]2O)cc1)C(=O)N[C@@H](C)C(=O)N[C@H]1CCN(c2cc3c(cc2F)c(=O)c(C(=O)O)cn3C2CC2)C1", "note": "[Compound 36]", "values": [{"measurement": "plasma protein binding mouse", "setting": "[1]", "result": 74, "unit": "%"}, {"measurement": "release of antibiotic cargo", "setting": "[2]", "result": "no significant release of their antibiotic cargo"}, {"measurement": "intracellular cleavage to compound 2", "setting": "A549 cells", "result": "not the case"}, {"measurement": "intracellular concentration", "setting": "A549 cells; 10 μg/ml, after 30 and 60 min", "result": "0.013 to 0.016", "unit": "µg/mL"}, {"measurement": "intracellular drug levels", "setting": "A549 cells", "result": "very low intracellular drug levels"}, {"measurement": "CLmic S9mouse", "setting": "[3]", "result": 14, "unit": "μL/min/mg protein"}, {"measurement": "metabolic stability t1/2 MLM", "setting": "[3]", "result": 1.67, "unit": "h"}]}
